# Test results taken from ChEMBL document CHEMBL5576083, “Structure-Based Design and Synthesis of Covalent Inhibitors for Deubiquitinase and Acetyltransferase ChlaDUB1 of Chlamydia trachomatis” (J Med Chem, 2024).
# Active and inactive are the calls of the source. No cut-off for these calls is given here.
# Tests used:
# [1] = system: Chlamydia trachomatis; experiment: Antimicrobial activity against Chlamydia trachomatis serovar L2 infected in human HeLa cells assessed as reduction in microbial progeny at 12.5 ug/ml measured after 48 hrs of post-infection by immunofluorescence analysis; assay type: functional; parameters: scale not given: the % may be the effect or the level left; conditions: dose 12.5 µg/ml
# [2] = Solubility of compound in PBS incubated overnight by shake-flask based HPLC analysis; assay type: physicochemical
# [3] = system: Chlamydia trachomatis; experiment: Antimicrobial activity against Chlamydia trachomatis serovar L2 infected in human HeLa cells assessed as reduction in inclusion area at 12.5 ug/ml measured after 24 hrs of post-infection by microscopic analysis; assay type: functional; conditions: dose 12.5 µg/ml
# [4] = system: HeLa; experiment: Cytotoxicity against human HeLa cells at 128 ug/ml incubated for 20 hrs by […] assay; assay type: functional, cell-based; conditions: dose 128.0 µg/ml
# [5] = target: T1, Ubiquitin carboxyl-terminal hydrolase isozyme L3 (Homo sapiens) (UniProt P15374); experiment: Inhibition of GST-tagged human UCHL3 using Ub-Rh110Gly as fluorogenic substrate at 40 uM preincubated for 1 hr followed by substrate addition by plate reader analysis
# T1 sequence (whole entry): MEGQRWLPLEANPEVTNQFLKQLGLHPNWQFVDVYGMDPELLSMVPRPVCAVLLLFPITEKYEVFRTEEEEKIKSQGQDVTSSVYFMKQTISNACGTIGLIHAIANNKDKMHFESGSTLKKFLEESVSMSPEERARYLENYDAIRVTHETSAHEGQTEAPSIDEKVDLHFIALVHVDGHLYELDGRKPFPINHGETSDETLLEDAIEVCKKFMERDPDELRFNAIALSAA
# [6] = system: HEp-2; experiment: Cytotoxicity against human HEp-2 cells at 4 to 128 ug/ml incubated for 20 hrs by […] assay; assay type: toxicity, cell-based; conditions: hep-2, 20 h, dose 4-128 µg/ml
# [7] = target: T2, Ubiquitin carboxyl-terminal hydrolase isozyme L1 (Homo sapiens, UniProt P09936); experiment: Inhibition of 6His-tagged human UCHL1 using Ub-Rh110Gly as fluorogenic substrate preincubated for 1 hr followed by substrate addition by plate reader analysis
# T2 sequence (P09936 whole entry): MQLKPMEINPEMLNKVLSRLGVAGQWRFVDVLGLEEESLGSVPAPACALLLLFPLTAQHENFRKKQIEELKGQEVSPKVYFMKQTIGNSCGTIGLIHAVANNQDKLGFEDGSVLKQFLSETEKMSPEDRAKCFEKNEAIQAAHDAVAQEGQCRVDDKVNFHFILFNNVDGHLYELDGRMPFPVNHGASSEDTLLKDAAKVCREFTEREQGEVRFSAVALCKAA
# [8] = system: Chlamydia trachomatis; experiment: Antimicrobial activity against Chlamydia trachomatis serovar L2 infected in human HeLa cells assessed as reduction in inclusion circumference at 12.5 ug/ml measured after 24 hrs of post-infection by microscopic analysis (reference value: 31.72 micrometer); assay type: functional; conditions: dose 12.5 µg/ml
# [9] = system: Chlamydia trachomatis; experiment: Antimicrobial activity against Chlamydia trachomatis serovar L2 infected in human HeLa cells assessed as reduction in inclusion circumference at 6.25 ug/ml measured after 24 hrs of post-infection by microscopic analysis (reference value: 31.72 micrometer); assay type: functional; conditions: dose 6.25 µg/ml
# [10] = Binding affinity to C-terminal 6His-tagged Chlamydia trachomatis DUB1 (130 to 401 residues) expressed in Escherichia coli Rosetta 2 (DE3) cells using Ub-Rh110Gly as fluorogenic substrate assessed as inhibition constant preincubated for 60 mins followed by substrate addition measured after 360 mins by plate reader analysis
# [11] = system: Chlamydia trachomatis; experiment: Antimicrobial activity against Chlamydia trachomatis serovar L2 infected in human HeLa cells assessed as reduction in inclusion forming unit at 12.5 ug/ml measured after 8 hrs of post-infection by immunofluorescence based microscopic analysis; assay type: functional, organism-based; conditions: dose 12.5 µg/ml
# [12] = target: T3, Ubiquitin carboxyl-terminal hydrolase 28 (Homo sapiens) (UniProt Q96RU2); experiment: Inhibition of human USP28 (149 to 707 residues) expressed in Escherichia coli Rosetta 2 (DE3) cells using Ub-Rh110Gly as fluorogenic substrate at 40 uM preincubated for 1 hr followed by substrate addition by plate reader analysis
# T3 sequence (whole entry): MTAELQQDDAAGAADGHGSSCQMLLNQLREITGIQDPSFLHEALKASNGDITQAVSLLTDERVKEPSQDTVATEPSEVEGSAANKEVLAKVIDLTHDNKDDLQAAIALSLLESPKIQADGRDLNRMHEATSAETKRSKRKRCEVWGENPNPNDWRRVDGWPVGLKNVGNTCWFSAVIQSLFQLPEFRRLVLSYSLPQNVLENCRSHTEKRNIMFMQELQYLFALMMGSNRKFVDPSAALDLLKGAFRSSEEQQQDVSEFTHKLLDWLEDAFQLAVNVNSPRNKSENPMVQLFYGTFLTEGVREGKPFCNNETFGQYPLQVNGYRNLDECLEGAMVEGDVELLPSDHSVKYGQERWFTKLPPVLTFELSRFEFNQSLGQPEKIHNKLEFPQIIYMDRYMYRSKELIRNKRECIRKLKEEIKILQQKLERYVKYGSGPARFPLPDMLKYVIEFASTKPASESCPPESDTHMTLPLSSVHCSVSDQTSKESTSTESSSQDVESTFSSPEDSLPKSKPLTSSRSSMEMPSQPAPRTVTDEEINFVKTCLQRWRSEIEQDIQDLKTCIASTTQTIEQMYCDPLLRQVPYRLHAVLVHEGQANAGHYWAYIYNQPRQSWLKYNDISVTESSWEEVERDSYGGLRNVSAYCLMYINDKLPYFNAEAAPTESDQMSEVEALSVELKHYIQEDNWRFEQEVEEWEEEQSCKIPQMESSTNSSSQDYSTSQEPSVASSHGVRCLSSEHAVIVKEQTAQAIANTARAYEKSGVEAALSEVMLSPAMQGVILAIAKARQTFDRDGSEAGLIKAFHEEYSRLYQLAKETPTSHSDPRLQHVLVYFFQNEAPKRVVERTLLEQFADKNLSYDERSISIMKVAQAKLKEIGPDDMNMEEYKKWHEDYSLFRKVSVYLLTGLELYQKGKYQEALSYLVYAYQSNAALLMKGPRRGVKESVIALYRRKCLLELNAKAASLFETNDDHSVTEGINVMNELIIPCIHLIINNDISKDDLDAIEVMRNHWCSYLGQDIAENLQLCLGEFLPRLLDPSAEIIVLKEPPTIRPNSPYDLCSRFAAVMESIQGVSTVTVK
# [13] = system: Chlamydia trachomatis; experiment: Antimicrobial activity against Chlamydia trachomatis serovar L2 infected in human HeLa cells assessed as reduction in inclusion circumference at 3.13 ug/ml measured after 24 hrs of post-infection by microscopic analysis (reference value: 31.72 micrometer); assay type: functional; conditions: dose 3.13 µg/ml
# [14] = Covalent inhibition of C-terminal 6His-tagged Chlamydia trachomatis DUB1 (130 to 401 residues) expressed in Escherichia coli Rosetta 2 (DE3) cells using Ub-Rh110Gly as fluorogenic substrate preincubated for 1 hr followed by substrate addition by plate reader analysis
# [15] = system: Chlamydia trachomatis; experiment: Antimicrobial activity against Chlamydia trachomatis serovar L2 infected in human HeLa cells assessed as reduction in microbial progeny at 3.13 ug/ml measured after 24 hrs of post-infection by immunofluorescence analysis; assay type: functional; parameters: scale not given: the % may be the effect or the level left; conditions: dose 3.13 µg/ml
structure (smiles),measurement,setting,value
N#Cc1ncc(C(=O)NCc2ccc(C(=O)NC34CC5CC(CC(C5)C3)C4)cc2)cn1,Activity,[1],98.5%
same,solubility thermodynamic,[2],308 µM
same,Activity,[3],15.38 um2
same,Activity,[4],inactive
same,inhibition,[5],inactive
same,Activity,[6],Toxic
same,IC50,[7],4.2 µM
same,Activity,[8],14.75 um
same,Activity,[9],25.98 um
same,Ki,[10],120 µM
same,Activity,[11],Active
same,inhibition,[12],inactive
same,Activity,[13],27.26 um
same,IC50,[14],7.7 µM
same,pIC50,[14],5.11
same,Activity,[15],45.5%
